Results as given in patent US20250059156A1, “THERAPEUTIC ALKALOID COMPOUNDS” (Sensorium Therapeutics, Inc., priority 2022, published 2025).

What was measured:
SERT = SERT (Homo sapiens (Human), UniProt P31645); assay: SERT inhibition assay (Neurotransmitter Transporter Fluorescence assay); type: cell-based; settings: class symbols; legend in nM/micromolar
Procedure: SERT inhibition was measured using a Neruotransmitter Transportation Fluorescence assay. Briefly, stable 5HHH cells were prepared in a 384 microwell plate. Compounds were prepared by in assay buffer (20 mM HEPES, 0.1% BSA). The compounds were added to the plated cells and incubated for 30 minutes at 37° C. 25 μL of dye solution (Molecular Devices Neurotransmitter Transporter Uptake Assay Kit) was added per well and incubated for 30 minutes at 37° C. The plates were then read on a plate reader.

PDE4D2 = PDE4D2 (Homo sapiens (Human), UniProt Q08499); assay: PDE4 percent inhibition assay; type: biochemical; settings: for inhibition at 10 µM: read-out: PDE4 Isoform % Inhibition @ 10 μM PDE4D2
PDE4D2, sequence (Q08499 303-809, change not shown): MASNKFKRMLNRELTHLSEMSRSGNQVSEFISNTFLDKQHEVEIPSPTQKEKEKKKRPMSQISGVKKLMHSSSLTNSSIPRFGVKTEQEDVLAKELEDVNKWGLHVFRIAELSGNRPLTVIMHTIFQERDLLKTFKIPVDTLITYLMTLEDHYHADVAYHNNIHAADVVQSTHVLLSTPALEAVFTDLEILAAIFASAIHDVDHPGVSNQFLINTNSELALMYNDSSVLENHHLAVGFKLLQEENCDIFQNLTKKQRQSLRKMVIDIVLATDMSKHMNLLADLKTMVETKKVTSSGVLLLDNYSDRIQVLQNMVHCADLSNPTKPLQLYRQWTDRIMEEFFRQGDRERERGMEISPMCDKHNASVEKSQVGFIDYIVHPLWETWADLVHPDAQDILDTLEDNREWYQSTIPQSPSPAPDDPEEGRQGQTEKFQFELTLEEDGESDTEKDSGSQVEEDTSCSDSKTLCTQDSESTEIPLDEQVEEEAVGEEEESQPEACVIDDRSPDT
Procedure: (§1) PDE4 assay kit (BPS Bioscience, San Diego, CA), as described below.
(§2) • 1) Dilute 20 μM FAM-Cyclic-3′, 5′-AMP stock 100-fold with PDE buffer to make a 200 nM solution. Make only sufficient quantity needed for the assay; store remaining 20 μM stock solution in aliquots at −20° C. • 2) Add 25 μl of FAM-Cyclic-3′,5′-AMP (200 nM) to each well designated “Positive Control”, “Test Inhibitor”, and “Substrate Control”. • 3) Add 20 μl of PDE assay buffer to each well designated “Substrate Control” and 45 μl of PDE assay buffer to each well designated “Blank”. • 4) Add 5 μl of inhibitor solution to each well designated “Test Inhibitor”. For the wells labeled “Positive Control”, “Substrate Control” and “Blank”, add 5 μl of the same solution without inhibitor (inhibitor buffer). • 5) Thaw PDE on ice. Upon first thaw, briefly spin tube containing enzyme to recover the full contents of the tube. • 6) Dilute PDE4 in PDE buffer to 7.5 pg/μl (0.15 ng/reaction)*. Initiate reaction by adding 20 μl of PDE4 (7.5 pg/μl) to the wells designated “Positive Control” and “Test Inhibitor.” • 7) Incubate at room temperature for 1 hour.
(§3) • 1) Mix binding agent thoroughly and dilute binding agent 1:100 with binding agent diluent. • 2) Add 100 μl diluted binding agent to each microwell. Incubate at room temperature for 1 hour with slow shaking. • 3) Read the fluorescent polarization of the sample in a microtiter-plate reader equipped for the measurement of fluorescence polarization, capable of excitation at wavelengths ranging from 485±5 nm and detection of emitted light ranging from 528±10 nm. Blank value is subtracted from all other values.
(§4) 100 µM dilutions of the test compounds were prepared in assay buffer (10% DMSO concentration) and 5 μl of the dilution was added to a 50 μl reaction so that the final concentration of DMSO is 1% in all of reactions.
(§5) The enzymatic reactions were conducted at room temperature for 60 minutes in a 50 μl mixture containing PDE assay buffer, 100 nM FAM-cAMP, a PDE enzyme and the test compound.
(§6) After the enzymatic reaction, 100 Is of a binding solution (1:100 dilution of the binding agent with the binding agent diluent) was added to each reaction and the reaction was performed at room temperature for 60 minutes.
(§7) Fluorescence intensity was measured at an excitation of 485 nm and an emission of 528 nm using a Tecan Infinite M1000 microplate reader.

PDE4C1 = PDE4C1 (Homo sapiens (Human), UniProt Q08493); assay: PDE4 percent inhibition assay; type: biochemical; settings: for inhibition at 10 µM: read-out: PDE4 Isoform % Inhibition @ 10 μM PDE4C1
PDE4C1, sequence (Q08493 whole entry, canonical isoform): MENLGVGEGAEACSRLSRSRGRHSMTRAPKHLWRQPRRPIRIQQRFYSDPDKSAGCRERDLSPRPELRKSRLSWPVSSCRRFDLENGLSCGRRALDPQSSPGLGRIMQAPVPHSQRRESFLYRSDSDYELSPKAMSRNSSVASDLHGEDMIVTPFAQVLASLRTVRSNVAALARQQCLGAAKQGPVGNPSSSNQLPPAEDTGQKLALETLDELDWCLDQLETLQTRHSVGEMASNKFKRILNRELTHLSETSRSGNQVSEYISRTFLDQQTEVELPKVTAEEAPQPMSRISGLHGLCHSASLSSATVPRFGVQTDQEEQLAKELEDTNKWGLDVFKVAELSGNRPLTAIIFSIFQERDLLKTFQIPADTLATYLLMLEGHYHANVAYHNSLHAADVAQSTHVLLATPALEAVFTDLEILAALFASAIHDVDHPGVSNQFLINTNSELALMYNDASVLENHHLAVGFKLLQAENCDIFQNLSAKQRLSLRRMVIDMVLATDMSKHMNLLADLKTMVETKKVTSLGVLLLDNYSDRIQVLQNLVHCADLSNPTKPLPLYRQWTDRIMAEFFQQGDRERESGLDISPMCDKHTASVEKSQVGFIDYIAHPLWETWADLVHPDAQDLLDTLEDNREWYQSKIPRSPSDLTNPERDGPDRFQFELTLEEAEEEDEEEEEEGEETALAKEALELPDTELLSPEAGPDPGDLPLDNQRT
Procedure: as §1, §2, §3, §4, §5, §6, §7

PDE4A1A = PDE4A1A (Homo sapiens (Human), UniProt P27815); assay: PDE4 percent inhibition assay; type: biochemical; settings: for inhibition at 10 µM: read-out: PDE4 Isoform % Inhibition @ 10 μM PDE4A1A
PDE4A1A, sequence (P27815 other isoform, or with tags, fused parts or gaps): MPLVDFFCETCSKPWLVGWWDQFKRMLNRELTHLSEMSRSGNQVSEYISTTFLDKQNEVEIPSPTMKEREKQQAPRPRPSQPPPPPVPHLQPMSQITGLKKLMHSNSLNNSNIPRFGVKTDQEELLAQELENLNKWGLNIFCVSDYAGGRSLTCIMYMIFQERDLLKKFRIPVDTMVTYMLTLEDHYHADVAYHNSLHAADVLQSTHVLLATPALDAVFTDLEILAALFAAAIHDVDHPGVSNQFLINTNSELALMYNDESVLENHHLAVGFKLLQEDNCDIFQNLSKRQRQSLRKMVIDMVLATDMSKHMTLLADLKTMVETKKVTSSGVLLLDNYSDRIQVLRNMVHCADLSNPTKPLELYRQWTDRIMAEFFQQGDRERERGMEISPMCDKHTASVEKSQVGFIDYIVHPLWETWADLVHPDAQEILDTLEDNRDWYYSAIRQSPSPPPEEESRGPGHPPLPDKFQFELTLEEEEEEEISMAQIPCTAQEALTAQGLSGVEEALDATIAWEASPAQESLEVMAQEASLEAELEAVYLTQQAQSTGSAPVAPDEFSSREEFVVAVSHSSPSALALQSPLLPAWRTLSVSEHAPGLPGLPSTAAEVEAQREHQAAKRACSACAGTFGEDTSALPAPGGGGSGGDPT
Procedure: as §1, §2, §3, §4, §5, §6, §7

PDE4B2 = PDE4B2 (Homo sapiens (Human), UniProt Q07343); assay: PDE4 percent inhibition assay; type: biochemical; settings: for inhibition at 10 µM: read-out: PDE4 Isoform % Inhibition @ 10 μM PDE4B2
PDE4B2, sequence (Q07343 other isoform, or with tags, fused parts or gaps): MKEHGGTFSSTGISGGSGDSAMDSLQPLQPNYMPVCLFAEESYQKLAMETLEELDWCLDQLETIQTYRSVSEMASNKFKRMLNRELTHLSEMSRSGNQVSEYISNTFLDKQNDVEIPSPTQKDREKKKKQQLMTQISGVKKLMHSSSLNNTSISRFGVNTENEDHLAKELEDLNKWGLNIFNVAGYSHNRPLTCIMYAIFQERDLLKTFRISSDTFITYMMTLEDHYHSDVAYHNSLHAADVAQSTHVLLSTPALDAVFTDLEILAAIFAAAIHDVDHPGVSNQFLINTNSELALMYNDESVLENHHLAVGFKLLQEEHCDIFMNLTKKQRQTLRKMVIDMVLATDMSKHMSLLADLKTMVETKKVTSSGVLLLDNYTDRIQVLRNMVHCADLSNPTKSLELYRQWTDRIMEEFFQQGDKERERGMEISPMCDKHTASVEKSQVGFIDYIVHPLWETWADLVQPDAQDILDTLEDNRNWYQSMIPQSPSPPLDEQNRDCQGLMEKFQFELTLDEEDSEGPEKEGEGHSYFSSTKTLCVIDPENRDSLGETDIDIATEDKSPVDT
Procedure: as §1, §2, §3, §4, §5, §6, §7

SERT, sequence (P31645 whole entry, species assumed): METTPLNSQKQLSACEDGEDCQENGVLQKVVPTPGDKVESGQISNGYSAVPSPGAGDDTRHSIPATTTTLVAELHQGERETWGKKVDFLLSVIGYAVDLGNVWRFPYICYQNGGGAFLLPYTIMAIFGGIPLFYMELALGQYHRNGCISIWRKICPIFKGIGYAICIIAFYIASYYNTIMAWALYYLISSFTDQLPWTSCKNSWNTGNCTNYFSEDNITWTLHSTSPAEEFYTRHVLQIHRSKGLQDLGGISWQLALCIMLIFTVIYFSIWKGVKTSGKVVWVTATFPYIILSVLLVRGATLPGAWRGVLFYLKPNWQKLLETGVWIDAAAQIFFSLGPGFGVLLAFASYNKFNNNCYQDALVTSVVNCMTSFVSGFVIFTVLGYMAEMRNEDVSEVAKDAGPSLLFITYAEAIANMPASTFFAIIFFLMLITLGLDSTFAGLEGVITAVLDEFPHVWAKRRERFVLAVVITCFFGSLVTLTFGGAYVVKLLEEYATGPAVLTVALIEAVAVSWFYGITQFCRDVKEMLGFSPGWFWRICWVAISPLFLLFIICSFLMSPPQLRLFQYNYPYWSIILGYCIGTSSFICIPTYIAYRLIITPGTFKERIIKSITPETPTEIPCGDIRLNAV

## COc1ccc([C@@]23CCN(C)[C@@H]2[C@H]2CCC[C@@H]3CC2=O)cc1OC [Compound 219]
SERT
  IC50: 100 to 500 nM
PDE4D2
  PDE4 Isoform % Inhibition @ 10 μM PDE4D2: C (C is the percent inhibition is 30-50%)
PDE4C1
  PDE4 Isoform % Inhibition @ 10 μM PDE4C1: B (B if the percent inhibition is 50-70%)
PDE4A1A
  PDE4 Isoform % Inhibition @ 10 μM PDE4A1A: C (C is the percent inhibition is 30-50%)
PDE4B2
  PDE4 Isoform % Inhibition @ 10 μM PDE4B2: C (C is the percent inhibition is 30-50%)

## COc1ccc([C@]23CC[C@@H](n4ccc(C(F)(F)F)n4)C[C@H]2N(C)CC3)cc1OC [Compound 121]
SERT
  IC50: 100 to 500 nM
PDE4D2
  PDE4 Isoform % Inhibition @ 10 μM PDE4D2: B (B if the percent inhibition is 50-70%)
PDE4C1
  PDE4 Isoform % Inhibition @ 10 μM PDE4C1: D (D if the percent inhibition is less than 30%)
PDE4A1A
  PDE4 Isoform % Inhibition @ 10 μM PDE4A1A: D (D if the percent inhibition is less than 30%)
PDE4B2
  PDE4 Isoform % Inhibition @ 10 μM PDE4B2: B (B if the percent inhibition is 50-70%)

## COc1ccc([C@]23CCN(C)[C@H]2[C@H]2CC[C@@H]3CC2=O)cc1OC [Compound 203]
SERT
  IC50: 50 to 100 nM
PDE4D2
  PDE4 Isoform % Inhibition @ 10 μM PDE4D2: B (B if the percent inhibition is 50-70%)
PDE4C1
  PDE4 Isoform % Inhibition @ 10 μM PDE4C1: C (C is the percent inhibition is 30-50%)
PDE4A1A
  PDE4 Isoform % Inhibition @ 10 μM PDE4A1A: D (D if the percent inhibition is less than 30%)
PDE4B2
  PDE4 Isoform % Inhibition @ 10 μM PDE4B2: B (B if the percent inhibition is 50-70%)

## COc1ccc([C@@]23CCN(C)[C@@H]2CC(=O)C[C@@H]3c2ccccc2)cc1OC [Compound 206]
SERT
  IC50: > 1000 nM
PDE4D2
  PDE4 Isoform % Inhibition @ 10 μM PDE4D2: A (A if the % inhibition is greater than or equal to 70%)
PDE4C1
  PDE4 Isoform % Inhibition @ 10 μM PDE4C1: B (B if the percent inhibition is 50-70%)
PDE4A1A
  PDE4 Isoform % Inhibition @ 10 μM PDE4A1A: A (A if the % inhibition is greater than or equal to 70%)
PDE4B2
  PDE4 Isoform % Inhibition @ 10 μM PDE4B2: A (A if the % inhibition is greater than or equal to 70%)

## COc1ccc([C@@]23CC[C@H](n4ccc(C(F)(F)F)n4)C[C@@H]2N(C)CC3)cc1OC [Compound 101, (3aS,6S,7aS)-3a-(3,4-dimethoxyphenyl)-1-methyl-6-(3-(trifluoromethyl)-1H-pyrazol-1-yl)octahydro-1H-indole]
PDE4D2
  inhibition at 10 µM: < 30%
PDE4C1
  inhibition at 10 µM: < 30%
PDE4A1A
  inhibition at 10 µM: < 30%
PDE4B2
  inhibition at 10 µM: < 30%

## COc1ccc([C@@]23CC[C@H](N4CCCC4)C[C@@H]2N(C)CC3)cc1OC [Compound 106, (3aS,6S,7aS)-3a-(3,4-dimethoxyphenyl)-1-methyl-6-(pyrrolidin-1-yl)octahydro-1H-indole]
SERT
  IC50: 500 to 1000 nM
PDE4D2
  inhibition at 10 µM: < 30%
PDE4C1
  inhibition at 10 µM: < 30%
PDE4A1A
  inhibition at 10 µM: < 30%
PDE4B2
  inhibition at 10 µM: < 30%

## COc1ccc([C@@]23CCN(C)[C@@H]2CC(=O)[C@@H]2O[C@@H]23)cc1OC [Compound 210]
SERT
  IC50: 100 to 500 nM
PDE4D2
  PDE4 Isoform % Inhibition @ 10 μM PDE4D2: A (A if the % inhibition is greater than or equal to 70%)
PDE4C1
  PDE4 Isoform % Inhibition @ 10 μM PDE4C1: A (A if the % inhibition is greater than or equal to 70%)
PDE4A1A
  PDE4 Isoform % Inhibition @ 10 μM PDE4A1A: A (A if the % inhibition is greater than or equal to 70%)
PDE4B2
  PDE4 Isoform % Inhibition @ 10 μM PDE4B2: A (A if the % inhibition is greater than or equal to 70%)

## COc1ccc([C@]23CC[C@H](n4ccc(C(F)(F)F)n4)C[C@H]2N(C)CC3)cc1OC [Compound 122]
SERT
  IC50: > 1000 nM
PDE4D2
  PDE4 Isoform % Inhibition @ 10 μM PDE4D2: D (D if the percent inhibition is less than 30%)
PDE4C1
  PDE4 Isoform % Inhibition @ 10 μM PDE4C1: D (D if the percent inhibition is less than 30%)
PDE4A1A
  PDE4 Isoform % Inhibition @ 10 μM PDE4A1A: D (D if the percent inhibition is less than 30%)
PDE4B2
  PDE4 Isoform % Inhibition @ 10 μM PDE4B2: D (D if the percent inhibition is less than 30%)

## COc1ccc([C@@]23CC[C@H](N4CCCC4=O)C[C@@H]2N(C)CC3)cc1OC [Compound 111, 1-((3aS,6S,7aS)-3a-(3,4-dimethoxyphenyl)-1-methyloctahydro-1H-indol-6-yl)pyrrolidin-2-one]
SERT
  IC50: < 50 nM
PDE4D2
  inhibition at 10 µM: < 30%
PDE4C1
  inhibition at 10 µM: < 30%
PDE4A1A
  inhibition at 10 µM: < 30%
PDE4B2
  inhibition at 10 µM: < 30%

## COc1ccc([C@]23CCN(C)[C@H]2CC(=O)[C@H]2O[C@H]23)cc1OC [Compound 209]
SERT
  IC50: < 50 nM
PDE4D2
  PDE4 Isoform % Inhibition @ 10 μM PDE4D2: A (A if the % inhibition is greater than or equal to 70%)
PDE4C1
  PDE4 Isoform % Inhibition @ 10 μM PDE4C1: A (A if the % inhibition is greater than or equal to 70%)
PDE4A1A
  PDE4 Isoform % Inhibition @ 10 μM PDE4A1A: A (A if the % inhibition is greater than or equal to 70%)
PDE4B2
  PDE4 Isoform % Inhibition @ 10 μM PDE4B2: A (A if the % inhibition is greater than or equal to 70%)

## CCN1CC[C@]2(c3ccc(OC)c(OC)c3)CCC(=O)C[C@H]12 [Compound 223]
SERT
  IC50: > 1000 nM

## COc1ccc([C@]23CCN(C)[C@H]2[C@@H]2CC[C@H]3CC2=O)cc1OC [Compound 204]
SERT
  IC50: 100 to 500 nM
PDE4D2
  PDE4 Isoform % Inhibition @ 10 μM PDE4D2: A (A if the % inhibition is greater than or equal to 70%)
PDE4C1
  PDE4 Isoform % Inhibition @ 10 μM PDE4C1: A (A if the % inhibition is greater than or equal to 70%)
PDE4A1A
  PDE4 Isoform % Inhibition @ 10 μM PDE4A1A: A (A if the % inhibition is greater than or equal to 70%)
PDE4B2
  PDE4 Isoform % Inhibition @ 10 μM PDE4B2: A (A if the % inhibition is greater than or equal to 70%)

## COc1ccc([C@@]23CC[C@H](N4CCCCC4)C[C@@H]2N(C)CC3)cc1OC [Compound 107, (3aS,6S,7aS)-3a-(3,4-dimethoxyphenyl)-1-methyl-6-(piperidin-1-yl)octahydro-1H-indole]
SERT
  IC50: > 1000 nM
PDE4D2
  inhibition at 10 µM: < 30%
PDE4C1
  inhibition at 10 µM: < 30%
PDE4A1A
  inhibition at 10 µM: < 30%
PDE4B2
  inhibition at 10 µM: < 30%

## CCN1CC[C@@]2(c3ccc(OC)c(OC)c3)CCC(=O)C[C@@H]12 [Compound 224]
SERT
  IC50: < 50 nM

## COc1ccc([C@@]23CCC(=O)C[C@@H]2N(C(C)C)CC3)cc1OC [Compound 226]
SERT
  IC50: 500 to 1000 nM

## COc1ccc([C@]23CCN(C)[C@H]2CC2(CCCO2)CC3)cc1OC (stereo partly shown) [Compound 117, (3a'S,7a'S)-3a′-(3,4-dimethoxyphenyl)-1′-methyldecahydro-3H-spiro[furan-2,6′-indole]]
SERT
  IC50: < 50 nM
PDE4D2
  inhibition at 10 µM: 30 to 50%
PDE4C1
  inhibition at 10 µM: < 30%
PDE4A1A
  inhibition at 10 µM: 30 to 50%
PDE4B2
  inhibition at 10 µM: 30 to 50%

## COc1ccc([C@]23CCN(C)[C@H]2CC(=O)C=C3c2ccccc2)cc1OC (racemic) [Compound 201, rac-(3aS,7aS)-3a-(3,4-dimethoxyphenyl)-1-methyl-4-phenyl-1,2,3,3a,7,7a-hexahydro-6H-indol-6-one]
SERT
  IC50: > 1000 nM
PDE4D2
  inhibition at 10 µM: ≥ 70%
PDE4C1
  inhibition at 10 µM: 30 to 50%
PDE4A1A
  inhibition at 10 µM: ≥ 70%
PDE4B2
  inhibition at 10 µM: ≥ 70%

## COc1ccc([C@]23CCC(=O)C[C@H]2N(C(C)C)CC3)cc1OC [Compound 227]
SERT
  IC50: 500 to 1000 nM
